From patent US12503452B2 (Curza Global, LLC, priority 2019, dated 2025)

How the values were obtained:
[1] = test system: E. coli S30 extract (bacterial protein synthesis); assay: E. coli S30 extract coupled transcription-translation luciferase assay (inhibition of bacterial protein synthesis); type: biochemical; conditions: class by IC50 or % inhibition @ 1 μM, read-out: S30 IC50 (μM/% inhib.)
In short: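 Cell-free coupled transcription-translation in E. coli S30 circular-DNA extract, with pBESTluc plasmid as template and complete amino acid mix. Eight 2-fold compound dilutions were incubated with the extract 1 h at 37 °C, chilled, then luciferase luminescence was read. % inhibition was taken relative to no-inhibitor wells; no-DNA wells gave background.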

P. aeruginosa (Pa) = assay: Broth microdilution minimum inhibitory concentration (MIC); type: cell-based; conditions: Pseudomonas aeruginosa, P. aeruginosa; growth medium supplemented with sodium bicarbonate; read-out: Pa MIC + bicarb
In short: (§1)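 Following CLSI M07-A9 with minor changes, growth medium was cation-adjusted Mueller-Hinton broth, alone or supplemented with bicarbonate (6.25 or 25 mM) or heat-inactivated human serum up to 50%. Each compound was tested over eight two-fold dilutions against 5×10^4 CFU per well.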

S. aureus (Sa) = assay: as above; type: cell-based; conditions: Staphylococcus aureus, S. aureus; growth medium supplemented with sodium bicarbonate; read-out: Sa + bicarb MIC
In short: as §1

E. faecalis (Ef) = assay: as above; type: cell-based; conditions: Enterococcus faecalis, E. faecalis; growth medium supplemented with sodium bicarbonate; read-out: Ef + bicarb MIC
In short: as §1

E. coli (Ec) = assay: as above; type: cell-based; conditions: Escherichia coli, E. coli; growth medium supplemented with sodium bicarbonate; read-out: E. coli + bicarb MIC
In short: as §1

A. baumannii (Ab) = assay: as above; type: cell-based; conditions: Acinetobacter baumannii; A. baumannii; growth medium supplemented with sodium bicarbonate; read-out: Ab + bicarb MIC
In short: as §1

[2] = target: Rabbit Reticulocyte Lysate (eukaryotic protein synthesis); assay: Rabbit reticulocyte lysate luciferase assay (inhibition of eukaryotic protein synthesis); type: biochemical; conditions: class by IC50 or % inhibition @ 1 μM, read-out: Rabbit reticulocyte IC50 (μM/% inhib.)
In short: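 Nuclease-treated rabbit reticulocyte lysate translating luciferase control RNA, with complete amino acids, was incubated at 30° C. for 90 minutes with 2-fold serial compound dilutions. Luminescence was measured after adding luciferase reagent. % inhibition was relative to water controls, with no-RNA wells as background.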

Compound | IC50 [1] | MIC (P. aeruginosa (Pa)) | MIC (S. aureus (Sa)) | MIC (E. faecalis (Ef)) | MIC (E. coli (Ec)) | MIC (A. baumannii (Ab)) | IC50 [2]
CC(C)(N)C(=O)N1CCN(C(=O)Nc2ccn(-c3ccc(CCN4CCCC(N)CC4)c(F)c3)c(=O)n2)CC1 (stereo not shown) [Compound 141] | < 0.5 µM | 8 to 32 µg/mL | < 8 µg/mL | < 8 µg/mL | < 8 µg/mL | > 32 µg/mL | > 1 µM
CC(C)(N)C(=O)N1CCN(C(=O)Nc2ccn(-c3ccc(CCN4CCCC(N)CC4)c(C(F)(F)F)c3)c(=O)n2)CC1 (stereo not shown) [Compound 142] | < 0.5 µM | 8 to 32 µg/mL | < 8 µg/mL | < 8 µg/mL | < 8 µg/mL | 8 to 32 µg/mL | > 1 µM
CC(C)(N)C(=O)N1CCN(C(=O)Nc2ccn(-c3ccc(C[C@@H](N)C(=O)N4CCCC(N)CC4)cc3)c(=O)n2)CC1 (stereo partly shown) [Compound 143] | > 1 µM | > 32 µg/mL | > 32 µg/mL | > 32 µg/mL | > 32 µg/mL | > 32 µg/mL | > 1 µM
CC(C)(N)C(=O)N1CCN(C(=O)Nc2ccn(-c3ccc(C(N)C(=O)N4CC(N)C4)cc3)c(=O)n2)CC1 (stereo not shown) [Compound 144] | > 1 µM | > 32 µg/mL | > 32 µg/mL | > 32 µg/mL | > 32 µg/mL | > 32 µg/mL | > 1 µM
CC(C)(N)C(=O)N1CCN(C(=O)Nc2ccn(-c3ccc(C(N)C(=O)NC4CNC4)cc3)c(=O)n2)CC1 (stereo not shown) [Compound 145] | 0.5 to 1 µM | > 32 µg/mL | > 32 µg/mL | > 32 µg/mL | > 32 µg/mL | > 32 µg/mL | > 1 µM
CC(C)(N)C(=O)N1CCN(C(=O)Nc2ccn(-c3ccc(C[C@H](N)C(=O)N4CC(N)C4)cc3)c(=O)n2)CC1 [Compound 146] | > 1 µM | > 32 µg/mL | > 32 µg/mL | > 32 µg/mL | > 32 µg/mL | > 32 µg/mL | > 1 µM
CC(C)(N)C(=O)N1CCN(C(=O)Nc2ccn(-c3ccc(C[C@H](N)C(=O)NC4CNC4)cc3)c(=O)n2)CC1 [Compound 147] | > 1 µM | > 32 µg/mL | > 32 µg/mL | > 32 µg/mL | > 32 µg/mL | > 32 µg/mL | > 1 µM
CC(C)(N)C(=O)N1CCN(C(=O)Nc2ccn(-c3ccc(C[C@H](N)C(=O)N4CCCC(N)CC4)cc3)c(=O)n2)CC1 (stereo partly shown) [Compound 148] | < 0.5 µM | > 32 µg/mL | > 32 µg/mL | > 32 µg/mL | > 32 µg/mL | > 32 µg/mL | > 1 µM
CC(Cc1ccc(-n2ccc(NC(=O)N3CCN(C(=O)C(C)(C)N)CC3)nc2=O)cc1)N(C)[C@H]1CC[C@@H](N)C1 (stereo partly shown) [Compound 149] | < 0.5 µM | > 32 µg/mL | < 8 µg/mL | 8 to 32 µg/mL | < 8 µg/mL | > 32 µg/mL | > 1 µM
CC(Cc1ccc(-n2ccc(NC(=O)N3CCN(C(=O)C(C)(C)N)CC3)nc2=O)cc1)N[C@H]1CC[C@@H](N)C1 (stereo partly shown) [Compound 150] | 0.5 to 1 µM | > 32 µg/mL | < 8 µg/mL | > 32 µg/mL | < 8 µg/mL | > 32 µg/mL | > 1 µM
CCN(C(C)Cc1ccc(-n2ccc(NC(=O)N3CCN(C(=O)C(C)(C)N)CC3)nc2=O)cc1)[C@H]1CC[C@@H](N)C1 (stereo partly shown) [Compound 151] | < 0.5 µM | 8 to 32 µg/mL | < 8 µg/mL | < 8 µg/mL | < 8 µg/mL | > 32 µg/mL | > 1 µM
CC(Cc1ccc(-n2ccc(NC(=O)N3CCN(C(=O)C(C)(C)N)CC3)nc2=O)cc1)NC1CCC(CN)CC1 (stereo not shown) [Compound 152] | > 1 µM | > 32 µg/mL | < 8 µg/mL | > 32 µg/mL | < 8 µg/mL | > 32 µg/mL | > 1 µM
CC(Cc1ccc(-n2ccc(NC(=O)N3CCN(C(=O)C(C)(C)N)CC3)nc2=O)cc1)N(C)C1CCC(CN)CC1 (stereo not shown) [Compound 153] | > 1 µM | > 32 µg/mL | < 8 µg/mL | > 32 µg/mL | < 8 µg/mL | > 32 µg/mL | > 1 µM
